In article PMC12027946, “Ionic and Non-Ionic Counterparts Based on Bis(Uracilyl)Alkane Moiety with Highest Selectivity Towards Acetylcholinesterase for Protection Against Organophosphate Poisoning and Treating Alzheimer’s Disease” (International Journal of Molecular Sciences, 2025):
Like-named read-outs stand apart in the source and are kept apart here.

What was measured:
BChE from human plasma = biological target: T1, BChE from human plasma (Homo sapiens, UniProt P06276); assay: In vitro cholinesterase inhibition (Ellman), BuChE; assay type: biochemical; conditions: Table 2; human BuChE; read-out: IC50 BuChE
T1 construct: butyrylcholiesterase from human plasma; purchased Sigma-Aldrich; host or cells: human plasma
Procedure: Inhibitory activities of the tested compounds against AChE and BChE were measured according to Ellman et al.. Enzyme-catalysed hydrolysis of ATCHh was carried out at 25 °C in 0.1 M phosphate buffer (pH 8.0) containing 0.25 U AChE, 1 mM ATCHh as substrates, and 0.1 mM of DTNB. In experiments with BuChE, 0.1 M phosphate buffer (pH 7.0) and BuTChh as a substrate were used. The tested compounds were pre-incubated with the enzyme for two minutes prior to the addition of the substrate and the subsequent recording of hydrolysis kinetics. […] A sample without an inhibitor was used as a control (100% cholinesterase activity). A sample without a substrate was used as a blank. Experiments were performed in triplicate.

human AChE = biological target: T2, human AChE (Homo sapiens, UniProt P22303); assay: Inhibition constants (Dixon and Cornish–Bowden plots), AChE; assay type: biochemical
T2 construct: purchased Sigma-Aldrich
Procedure: (§1) Experiments were performed using four different concentrations of ATCh as a substrate for AChE, and with BuTCh as a substrate for BuChE. According to the analysis of Dixon and Cornish–Bowden plots for bisuracil 2b, AChE and BuChE inhibition is of a mixed type characterised both by competitive inhibition (Kci) and uncompetitive inhibition (Kui) components. For AChE, Kci was determined to be 55.7 ± 8.1 pM while Kui = 156 ± 18 pM (Figure 3A,B), and Kci = 0.13 ± 0.02 mM while Kui = 0.7 ± 0.06 mM for BuChE (Figure 3C,D). Inhibition of AChE and BuChE by bisuracil 3c was of a mixed type. For the AChE constant, Kci was 0.7 ± 0.04 nM while Kui 4.45 ± 1.76 nM (Figure 4A,B); for the BuChE constant, Kci = 0.04 ± 0.007 мM while Kui = 0.68 ± 0.08 мM (Figure 4C,D).
(§2) A UV-1800 Shimadzu (Shimadzu Co., Kyoto, Japan) spectrophotometer was utilised to conduct the measurements. The final enzyme concentration in the assays was in the picomolar range. In order to ascertain the levels of spontaneous hydrolysis of the enzyme and substrate in the absence of an inhibitor, controls were performed for each substrate concentration. The change in absorption was then recorded over a period of three minutes. The inhibition constants were determined from a Dixon plot and Cornish–Bowden transformation.

human BuChE = biological target: T3, human BuChE (Homo sapiens, UniProt P06276); assay: Inhibition constants (Dixon and Cornish–Bowden plots), BuChE; assay type: biochemical
T3 construct: butyrylcholiesterase from human plasma; purchased Sigma-Aldrich; host or cells: human plasma
Procedure: as §1, §2

[1] = Acute toxicity, single i.p. injection; conditions: CD-1, mouse, in vivo, ip, mice
Procedure: Toxicological experiments were performed using a single i.p. injection of the tested compounds in CD-1 mice weighing 20–25 g. Stock solutions of the tested compounds were diluted in ethanol or water. The final ethanol dose was 100 mg/kg. Nine different doses of the tested compounds were used with 12 mice per dose. Animals were observed 7 days after injection, and symptoms of toxicity were recorded.

[2] = tested on: scopolamine-induced amnesia in mice; assay: Novel object recognition test, scopolamine-induced amnesia; assay type: in vivo; conditions: scopolamine 1.5 mg/kg
Procedure: This study explored the ability of bisuracil 3c to counteract scopolamine-induced amnesia in mice, utilising behavioural assessments conducted through the novel object recognition test. […] The induction of amnesia was facilitated by the i.p. injection of scopolamine (1.5 mg/kg) 50 min prior to testing. […]. An equivalent amount of the vehicle was administered to a control group of mice.
The experiments were carried out on CD1 mice of both sexes weighing 24–25 g. The novel object recognition test was conducted over a period of three days. On the first day, the mice were placed individually into the square testing arena with black walls (50 cm in length, 50 cm in width, 38 cm in height) for 5 min without any objects. On the second day, two identical objects were placed in the central part of the arena, and the mice were allowed to explore the objects for 10 min. Test compounds were administered prior to testing on the second day. The induction of amnesia was facilitated by i.p. injection of scopolamine (1.5 mg/kg) 50 min prior to testing. Tested compounds were administered i.p. 30 min prior to testing. The control group of animals was administered with an equivalent amount of vehicle. On the third day, the mice were presented with a familiar and a novel object for 10 min. The time of exploration of each object by the mice was recorded using a digital camera. After each test, the arena was cleaned with a solution of 70% ethanol. At the end of the test, the preference index (exploration of novel object/total exploration time × 100) was calculated.

mice = assay: Rotarod test; assay type: in vivo; conditions: 3c 5 mg/kg i.p.; control 154 ± 20 s, p = 0.137
Procedure: The ability of effective doses of bisuracil 2b (0.01 mg/kg) and bisuracil 3c (5 mg/kg) to induce incapacitation was evaluated. Locomotor activity, measured as the total distance travelled, and exploratory behaviour, assessed by the number of rearings (head inclinations) and head dips, were evaluated using the open-field test. Additionally, motor coordination was analysed using the rotarod test, where the ability of mice to stay on the rotating rod was recorded. The compounds were administered i.p. 30 min before testing, while the control group received an equivalent volume of the vehicle.
To analyse motor function, rotarod and open-field tests were carried out. Mice were randomly divided into 3 groups (n = 12): a control group of mice and groups of mice treated with tested compounds. Tests were conducted 1 h after compound exposure. To assess motor function, mice were first placed on a rotarod treadmill (Ugo Basile, Italy). Rotation speed was fixed at 15 rpm, and the time that each mouse remained on the rod was recorded as the score, with a maximum duration of 300 s per trial. Each mouse underwent 3 trials. […] To assess motor function, the distance travelled in centimetres in the arena was measured, using VideoMot2 software (Version 8.02 (131) 03-07-17 (TSE Systems, Bad Homburg, Germany).

T2 sequence (P22303 32-614): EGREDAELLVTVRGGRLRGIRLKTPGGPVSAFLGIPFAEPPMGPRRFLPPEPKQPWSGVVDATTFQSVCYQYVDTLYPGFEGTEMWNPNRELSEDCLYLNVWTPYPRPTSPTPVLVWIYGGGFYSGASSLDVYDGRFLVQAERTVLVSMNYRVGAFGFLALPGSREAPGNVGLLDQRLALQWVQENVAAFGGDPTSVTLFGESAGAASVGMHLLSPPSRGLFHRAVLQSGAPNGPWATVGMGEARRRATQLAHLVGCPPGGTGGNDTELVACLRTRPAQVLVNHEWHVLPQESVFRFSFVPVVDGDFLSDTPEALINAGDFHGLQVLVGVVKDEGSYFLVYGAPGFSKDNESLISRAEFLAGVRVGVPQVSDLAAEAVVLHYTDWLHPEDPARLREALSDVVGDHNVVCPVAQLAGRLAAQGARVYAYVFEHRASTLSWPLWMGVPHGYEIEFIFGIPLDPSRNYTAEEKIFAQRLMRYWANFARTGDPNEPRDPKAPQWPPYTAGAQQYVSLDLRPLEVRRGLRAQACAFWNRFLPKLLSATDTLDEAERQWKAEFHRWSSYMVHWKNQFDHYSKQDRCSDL
T3 sequence (P06276 29-602): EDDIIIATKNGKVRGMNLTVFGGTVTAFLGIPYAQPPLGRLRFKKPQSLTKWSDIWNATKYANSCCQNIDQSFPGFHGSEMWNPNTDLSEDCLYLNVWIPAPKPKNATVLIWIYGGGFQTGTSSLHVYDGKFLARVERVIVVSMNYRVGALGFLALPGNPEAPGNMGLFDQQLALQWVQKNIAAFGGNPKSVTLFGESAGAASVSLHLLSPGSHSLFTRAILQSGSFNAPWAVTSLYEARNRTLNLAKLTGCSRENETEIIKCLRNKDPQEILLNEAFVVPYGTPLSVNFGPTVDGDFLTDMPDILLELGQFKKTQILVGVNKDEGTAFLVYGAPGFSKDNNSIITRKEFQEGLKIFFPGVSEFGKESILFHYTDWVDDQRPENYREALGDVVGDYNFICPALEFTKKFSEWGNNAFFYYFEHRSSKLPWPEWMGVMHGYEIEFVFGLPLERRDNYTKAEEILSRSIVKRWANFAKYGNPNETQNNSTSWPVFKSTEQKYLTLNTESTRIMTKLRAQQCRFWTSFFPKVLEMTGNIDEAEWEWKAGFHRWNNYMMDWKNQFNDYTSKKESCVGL
T1 sequence (P06276 29-602): as above

## CCN(CCCCCn1c(=O)ccn(CCCCCn2c(C)cc(=O)n(C)c2=O)c1=O)Cc1ccccc1C#N [3c]
BChE from human plasma
  IC50: 28 µM
Human AChE; ATCh as substrate
  Kui (uncompetitive inhibition constant), AChE: 4.45 ± 1.76 nM
Human AChE; ATCh as substrate, read-out: Kci (competitive inhibition constant), AChE
  Ki: 0.0007 ± 4e-05 µM
Human AChE; Dixon and Cornish–Bowden plots
  type of AChE inhibition: mixed type
Human BuChE; BuTCh as substrate
  Kui (uncompetitive inhibition constant), BuChE: 0.68 ± 0.08 мM
Human BuChE; BuTCh as substrate, read-out: Kci (competitive inhibition constant), BuChE
  Ki: 40 ± 7 µM
Human BuChE; Dixon and Cornish–Bowden plots
  type of BuChE inhibition: mixed type
[1]; observed 7 days, read-out: LD50 (median lethal dose)
  LD50 at 7 days: 22.8 mg/kg
[1]; read-out: LD50 95% confidence limits
  LD50 at 7 days: 15 to 28.7 mg/kg
[2]; 3c 2 mg/kg i.p. 30 min prior to testing
  effect on the preference index: no significant effect
[2]; 3c 5 mg/kg i.p. 30 min prior to testing, p = 0.01
  increase in the preference for the novel object compared to the scopolamine-treated group: 30.5%
mice
  mean fall time (rotarod): 170 ± 19 s
